# No end group written: not given here.
# Experiments:
# [1] = system: colon adenocarcinoma HT-29 cells; test: Cells growth determination, HT-29 cells; type: cell-based; conditions: 48 hr; OxA 0.1 μM, SB408124 increasing concentrations
# Description: FIG. 12: Determination of the inhibition of cellular growth of HEK-OX1R cells and colon adenocarcinoma cells (HT-29) induced by 0.1 μM of OxA or various concentrations of SB408124 antagonist. HEK-OX1R cells (black column) and HT-29 cells (white column) were incubated with 0.1 μM of OxA and indicated increasing concentration of SB408124, and cells were counted after 48 hr incubation. Results are expressed as the percentage of total viable cells.
# Cells growth determination and apoptosis assay: HEK-OX1R cells or colon adenocarcinoma HT-29 cells were seeded, grown and maintained at 37° C. in a humidified 5% CO2/air incubator. After 24 hr culture, cells were treated with or without Orexin-A peptide or SB408124 antagonist, previously dissolved in DMSO, to be tested at the concentration indicated in the figure legends. After 48 hr of treatment, adherent cells were harvested by Trip1E (Life Technologies, Saint Aubin, France) and manually counted. Apoptosis was determined using the Guava PCA system and the Guava nexin kit.
# EAE mice = test: Chronic experimental autoimmune encephalomyelitis (EAE) induced with MOG35-55; type: in vivo, C57BL/6 mice; conditions: for Histopathological EAE score (spinal cord): 30 days post-immunization; for Regulatory T cell (Treg) proportion in draining lymph nodes: day 30 post-immunization, flow cytometry, versus PBS controls; for Clinical features of EAE (clinical score 0-5): orexin A 100 or 300 μg per mouse for 5 days, IP or retro-orbital, before onset or at moderate EAE score
# Description: EAE was induced with 100 μg of MOG35-55 (Myelin Oligodendrocyte Glycoprotein 35-55) as previously described (Proc Natl Acad Sci USA. 106(6):2012-7, 2009) to 9 week old female C57BL/6 wild-type (WT) mice (n=10/group). Panels show clinical signs of EAE scored daily in a blinded fashion for over 30 days on a scale of 0-5 as follows: 0, no detectable clinical signs, 1, waddling gait with limp tail, 2, ataxia with full paralysis of one limb, 3, full paralysis of two limbs, 4, full paralysis of two limbs with important weight loss (>20% of initial weight) and 5, moribund or dead. Then, mice were given:
# Panel A, intraperitoneally (IP) either PBS (group PBS IP), 100 μg of orexin A per mouse for 5 days on day 3 (=before the onset, group BOxA100 IP) or at a moderate EAE score (=1,5-2 for group OxA100 IP).
# Panel B, intraperitoneally either PBS (group PBS), 100 μg (group OxA100 IP) or 300 μg (group OxA300 IP) of orexin A per mouse for 5 days at a moderate EAE score (=1,5-2).
# Panel C, either PBS (group PBS), 300 μg of orexin A per mouse intraperitoneally (group OxA300 IP) or retro-orbitally (RO) (group OxA300 RO) for 5 days at a moderate EAE score (=1,5-2).
# The EAE score is shown as mean+/−SEM. *P<0.05 (nonparametric t-test, compared to PBS group).
# FIG. 5. […] 30 days post-immunization, mice (from the PBS, OxA300 RO, and OxA300 IP groups of FIG. 2, panel C) were sacrificed and spinal cords were harvested, fixed overnight in 4% paraformaldehyde and stored in 70% ethanol. Spinal cords were then embedded in paraffin and cut in […] section. After haematoxylin/eosin (to distinguish cell infiltration) and luxol fast blue (to label myelin) staining, photography was performed at ×1,25 and ×10 magnifications for the spinal cord sections of PBS, OxA300 RO and OxA300 IP mice. […] Histopathology grading was as follows: 0—normal appearance, 1—some infiltrated cells and low demyelination, 2—2 or 3 infiltrated areas and low demyelination, 3—numerous infiltrated areas and strong demyelination, 4—important cell infiltration throughout the tissue with strong demyelination. *P<0.05 (nonparametric t-test, compared to PBS group).
# FIG. 6. […] It was determined 30 days after EAE induction of PBS, OxA300 RO, and OxA300 IP mice (from FIG. 2, panel C) by real time RT-qPCR as previously described (Proc Natl Acad Sci USA. 106(6):2012-7, 2009). *P<0.05 (nonparametric t-test, compared to PBS group).
# FIG. 7. […] On day 30 post-immunization, draining lymph nodes were harvested from the naïve, PBS, OxA300 RO, and OxA300 IP groups (FIG. 2, panel C). Assessment by flow cytometry was performed by using the mouse regulatory T cell staining kit: lymph node Tregs were defined as […] and proliferative Tregs as CD4^+CD25^+Foxp3^+Ki67^+ cells.
# Histograms represent the mean of the percentage (left) and the total number (right) of Tregs and proliferative Tregs (Ki67^+Tregs) for each group. Bars represent the mean+/−SEM of 5 individual mice. *P<0.05 (non parametric t-test, compared to PBS group).
# Therefore, orexin A presents potent intrinsic anti-inflammatory properties, capable of modulating the Th/Treg homeostasis during an auto-immune response as aggressive as in a chronic EAE model.
# [2] = 30 days after EAE induction, RT-qPCR, OxA 300 μg RO or IP
substance,measurement,setting,value
"OxA: neuropeptide, endogenous ligand of OX1R and OX2R, with two disulphide bridges (QPLPDCCRQKTCSCRLYELLHGAGNHAAGILTL; disulfide (positions not given here); ends not checked; also: two disulphide bridges, pairing not given here; UniProt O43612 34-66, looked up)",Inhibition of cellular growth of HT-29 cells,[1],strong inhibition
same,Th1-specific (IFNγ) cytokine gene expression in the brain,EAE mice; [2],efficiently suppresses
same,Th17-specific (IL-17) cytokine gene expression in the brain,EAE mice; [2],efficiently suppresses
same,Histopathological EAE score (spinal cord),"EAE mice; OxA 300 μg RO or IP, listed as Orexin A",significantly decreases
same,Histopathological EAE score (spinal cord),"EAE mice; OxA 300 μg RO or IP, listed as orexin A",drastic reduction
same,Regulatory T cell (Treg) proportion in draining lymph nodes,EAE mice; listed as Orexin A,increased
same,Regulatory T cell (Treg) proportion in draining lymph nodes,EAE mice; listed as orexin A,increase
same,Clinical features of EAE (clinical score 0-5),EAE mice; listed as Orexin A,dramatically alleviate
same,Clinical features of EAE (clinical score 0-5),EAE mice; listed as orexin A,significantly ameliorated
same,Th1/Th17 pro-inflammatory responses in the CNS tissues,EAE mice; orexin A treated-mice versus PBS controls,drastic reduction
